Experimental data published in patent publication US20040152747A1, “Thiazole compounds for treatment of neurodegenerative disorders” (Pfizer Inc, priority 2002, published 2004).

Tested on: gamma-secretase
Experiment: gamma-secretase activity in a solubilized membrane preparation (cell-free assay, McLendon et al.)
Type: biochemical
Details: read-out: IC50 activity for inhibiting gamma-secretase activity
Method: The activity of compounds of the invention in inhibiting gamma-secretase activity was determined in a solubilized membrane preparation generally according to the description provided in McLendon et al. Cell-free assays for γ-secretase activity, The FASEB Journal (Vol. 14, December 2000, pp. 2383-2386).

Compound `CCC(NC(=O)Cc1cc(F)cc(F)c1)C(=O)Nc1ncc(-c2ccc(Br)s2)s1` (stereo not shown) [Example 11, N-[5-(5-bromo-thiophen-2-yl)-thiazol-2-yl]-2-[2-(3,5-difluoro-phenyl)-acetylamino]-butyramide] has an IC50 of roughly 5 µM.
